Test results: article PMC5908784, “Extracellular loops 2 and 3 of the calcitonin receptor selectively modify agonist binding and efficacy” (Biochemical Pharmacology, 2018)
Numbering of substitutions follows the chain as printed. Where a SMILES comes first, the peptide text is derived from it. Bridges are numbered along the chain shown (N, C = ends).

Assays:
Experiment in all cases: ERK1/2 phosphorylation
Assay type in all cases: cell-based
hCTR G369A = biological target: T1, hCTR G369A (Homo sapiens, UniProt P30988, G369A); details: CV1-FlpIn cells, mean ± S.E.M.; for Emax: pERK maximal response; for EC50: pERK, three-parameter logistic fit
T1 construct: c-Myc (N); expressed in transfected cells
T1 sequence (P30988 25-474 G369A): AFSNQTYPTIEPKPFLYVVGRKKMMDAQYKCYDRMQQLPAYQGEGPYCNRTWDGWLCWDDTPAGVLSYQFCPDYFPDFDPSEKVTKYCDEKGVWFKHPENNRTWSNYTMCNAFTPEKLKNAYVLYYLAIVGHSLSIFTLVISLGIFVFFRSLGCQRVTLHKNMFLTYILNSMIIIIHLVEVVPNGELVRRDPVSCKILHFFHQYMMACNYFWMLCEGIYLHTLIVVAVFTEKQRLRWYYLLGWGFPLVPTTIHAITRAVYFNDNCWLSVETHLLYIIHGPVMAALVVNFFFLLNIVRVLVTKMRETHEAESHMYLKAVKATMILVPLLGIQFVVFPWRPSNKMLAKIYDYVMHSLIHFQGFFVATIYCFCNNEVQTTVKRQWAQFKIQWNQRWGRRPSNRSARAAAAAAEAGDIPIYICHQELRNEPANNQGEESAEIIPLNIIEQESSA
How it was run: (§1)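 First, cells (2.5 × 10^4 per well) were plated and left overnight. Agonist concentration-response data were then scaled to the peak signal given by 10% FBS at 6 min. Finally, a 3-parameter logistic equation yielded EC50 and Emax.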

hCTR T280A = biological target: T2, hCTR T280A (Homo sapiens, UniProt P30988, T280A); details: CV1-FlpIn cells, mean ± S.E.M.; for Emax: pERK maximal response; for EC50: pERK, three-parameter logistic fit
T2 construct: expressed in transfected cells
T2 sequence (P30988 25-474 T280A): T1 sequence (P30988 25-474 G369A) with T256A, A345G
How it was run: as §1

hCTR F359A = biological target: T3, hCTR F359A (Homo sapiens, UniProt P30988, F359A); details: for Emax: read-out: Emax (% WT); for EC50: pERK, hCTR F359A, CV1-FlpIn cells, three-parameter logistic fit, mean ± S.E.M.
T3 construct: expressed in transfected cells
T3 sequence (P30988 25-474 F359A): T1 sequence (P30988 25-474 G369A) with F335A, A345G
How it was run: as §1

hCTR D373A = biological target: T4, hCTR D373A (Homo sapiens, UniProt P30988, D373A); details: CV1-FlpIn cells, mean ± S.E.M.; for Emax: pERK maximal response
T4 construct: c-Myc (N); expressed in transfected cells
T4 sequence (P30988 25-474 D373A): T1 sequence (P30988 25-474 G369A) with A345G, D349A
How it was run: as §1

hCTR D287A = biological target: T5, hCTR D287A (Homo sapiens, UniProt P30988, D287A); details: CV1-FlpIn cells, mean ± S.E.M.; for Emax: pERK maximal response
T5 construct: c-Myc (N); expressed in transfected cells
T5 sequence (P30988 25-474 D287A): T1 sequence (P30988 25-474 G369A) with D263A, A345G
How it was run: as §1

[1] = pERK, three-parameter logistic fit

SMILES | Emax (hCTR G369A) [%] | Emax (hCTR T280A) [%] | Emax (hCTR F359A) [%] | Emax (hCTR D373A) [%] | Emax (hCTR D287A) [%] | EC50 (hCTR G369A) [nM] | EC50 (hCTR T280A) [nM] | EC50 (hCTR F359A) [nM] | EC50 (hCTR D373A; [1]) [nM] | EC50 (hCTR D287A; [1]) [nM]
CC(C)C[C@H](NC(=O)[C@H](CC(N)=O)NC(=O)[C@H](CC(N)=O)NC(=O)[C@H](CO)NC(=O)[C@H](CO)NC(=O)[C@H](CCCNC(=N)N)NC(=O)[C@@H](NC(=O)[C@H](CC(C)C)NC(=O)[C@H](Cc1ccccc1)NC(=O)[C@H](CC(N)=O)NC(=O)[C@H](C)NC(=O)[C@H](CC(C)C)NC(=O)[C@H](CCCNC(=N)N)NC(=O)[C@H](CCC(N)=O)NC(=O)[C@@H](NC(=O)[C@H](C)NC(=O)[C@@H]1CSSC[C@H](NC(=O)[C@@H](N)CCCCN)C(=O)N[C@@H](CC(N)=O)C(=O)N[C@@H]([C@@H](C)O)C(=O)N[C@@H](C)C(=O)N[C@@H]([C@@H](C)O)C(=O)N1)[C@@H](C)O)C(C)C)C(=O)NCC(=O)N1CCC[C@H]1C(=O)N[C@H](C(=O)N[C@@H](CC(C)C)C(=O)N1CCC[C@H]1C(=O)N1CCC[C@H]1C(=O)N[C@H](C(=O)N[C@@H](CC(N)=O)C(=O)N[C@H](C(=O)NCC(=O)N[C@@H](CO)C(=O)N[C@@H](CC(N)=O)C(=O)N[C@H](C(=O)N[C@@H](Cc1ccc(O)cc1)C(N)=O)[C@@H](C)O)C(C)C)[C@@H](C)O)C(C)C [rAmy] | 63 ± 8 | 110 ± 11 | 58 ± 11 | – | – | – | – | – | – | –
CC[C@H](C)[C@H](NC(=O)[C@H](C)NC(=O)[C@@H](NC(=O)[C@H](CCC(N)=O)NC(=O)[C@@H]1CCCN1C(=O)[C@H](Cc1ccccc1)NC(=O)[C@@H](NC(=O)[C@H](Cc1c[nH]cn1)NC(=O)[C@H](Cc1ccccc1)NC(=O)[C@H](CCCCN)NC(=O)[C@H](CC(N)=O)NC(=O)[C@H](Cc1ccccc1)NC(=O)[C@H](CC(=O)O)NC(=O)[C@H](CCC(N)=O)NC(=O)[C@@H](NC(=O)[C@H](Cc1ccc(O)cc1)NC(=O)[C@@H](NC(=O)CNC(=O)[C@H](CC(C)C)NC(=O)[C@H](CCSC)NC(=O)[C@@H]1CSSC[C@H](N)C(=O)NCC(=O)N[C@@H](CC(N)=O)C(=O)N[C@@H](CC(C)C)C(=O)N[C@@H](CO)C(=O)N[C@@H]([C@@H](C)O)C(=O)N1)[C@@H](C)O)[C@@H](C)O)[C@@H](C)O)[C@@H](C)O)C(=O)NCC(=O)N[C@H](C(=O)NCC(=O)N[C@@H](C)C(=O)N1CCC[C@H]1C(N)=O)C(C)C [hCT] | 141 ± 9 | 168 ± 12 | 153 ± 8 | 71 ± 7 | 35 ± 5 | – | – | – | – | –
CC(C)C[C@H](NC(=O)CNC(=O)[C@H](C)NC(=O)[C@H](CC(C)C)NC(=O)[C@H](CCCNC(=N)N)NC(=O)[C@H](Cc1cnc[nH]1)NC(=O)[C@@H](NC(=O)[C@@H](NC(=O)[C@@H]1CSSC[C@H](NC(=O)[C@H](C)N)C(=O)N[C@@H](CC(=O)O)C(=O)N[C@@H]([C@@H](C)O)C(=O)N[C@@H](C)C(=O)N[C@@H]([C@@H](C)O)C(=O)N1)C(C)C)[C@@H](C)O)C(=O)N[C@@H](CC(C)C)C(=O)N[C@@H](CO)C(=O)N[C@@H](CCCNC(=N)N)C(=O)N[C@@H](CO)C(=O)NCC(=O)NCC(=O)N[C@H](C(=O)N[C@H](C(=O)N[C@@H](CCCCN)C(=O)N[C@@H](CC(N)=O)C(=O)N[C@@H](CC(N)=O)C(=O)N[C@@H](Cc1ccccc1)C(=O)N[C@H](C(=O)N1CCC[C@H]1C(=O)N[C@H](C(=O)N[C@@H](CC(N)=O)C(=O)N[C@H](C(=O)NCC(=O)N[C@@H](CO)C(=O)N[C@@H](CCCCN)C(=O)N[C@@H](C)C(=O)N[C@@H](Cc1ccccc1)C(N)=O)C(C)C)[C@@H](C)O)C(C)C)C(C)C)C(C)C [hαCGRP] | 87 ± 14 | 106 ± 12 | – | – | – | 81.3 | 53.7 | 6.31 | – | –
CC(C)C[C@H](NC(=O)[C@H](CCCCN)NC(=O)CNC(=O)[C@H](CC(C)C)NC(=O)[C@@H](NC(=O)[C@@H]1CSSC[C@H](N)C(=O)N[C@@H](CO)C(=O)N[C@@H](CC(N)=O)C(=O)N[C@@H](CC(C)C)C(=O)N[C@@H](CO)C(=O)N[C@@H]([C@@H](C)O)C(=O)N1)C(C)C)C(=O)N[C@@H](CO)C(=O)N[C@@H](CCC(N)=O)C(=O)N[C@@H](CCC(=O)O)C(=O)N[C@@H](CC(C)C)C(=O)N[C@@H](Cc1c[nH]cn1)C(=O)N[C@@H](CCCCN)C(=O)N[C@@H](CC(C)C)C(=O)N[C@@H](CCC(N)=O)C(=O)N[C@H](C(=O)N[C@@H](Cc1ccc(O)cc1)C(=O)N1CCC[C@H]1C(=O)N[C@@H](CCCNC(=N)N)C(=O)N[C@H](C(=O)N[C@@H](CC(N)=O)C(=O)N[C@H](C(=O)NCC(=O)N[C@@H](CO)C(=O)NCC(=O)N[C@H](C(=O)N1CCC[C@H]1C(N)=O)[C@@H](C)O)[C@@H](C)O)[C@@H](C)O)[C@@H](C)O [sCT] | 115 ± 4 | 158 ± 12 | 186 ± 7 | 103 ± 11 | 39 ± 2 | – | – | – | – | –
CSCC[C@H](NC(=O)CNC(=O)[C@H](CO)NC(=O)[C@H](Cc1ccccc1)NC(=O)[C@H](CCCNC(=N)N)NC(=O)[C@H](Cc1c[nH]cn1)NC(=O)[C@H](Cc1ccccc1)NC(=O)[C@H](CC(N)=O)NC(=O)[C@H](CC(N)=O)NC(=O)[C@H](CC(C)C)NC(=O)[C@H](CC(N)=O)NC(=O)[C@H](CCCNC(=N)N)NC(=O)[C@H](Cc1c[nH]c2ccccc12)NC(=O)[C@H](Cc1ccc(O)cc1)NC(=O)[C@H](C)NC(=O)[C@H](CO)NC(=O)[C@H](CC(C)C)NC(=O)[C@@H](NC(=O)[C@@H]1CSSC[C@H](N)C(=O)N[C@@H](CO)C(=O)N[C@@H](CC(N)=O)C(=O)N[C@@H](CC(C)C)C(=O)N[C@@H](CO)C(=O)N[C@@H]([C@@H](C)O)C(=O)N1)C(C)C)C(=O)NCC(=O)N[C@@H](Cc1ccccc1)C(=O)NCC(=O)N1CCC[C@H]1C(=O)N[C@@H](CCC(=O)O)C(=O)N[C@H](C(=O)N1CCC[C@H]1C(N)=O)[C@@H](C)O [pCT] (H-CSNLSTCVLSAYWRNLNNFHRFSGMGFGPETP-NH2; disulfide 1-7) | 128 ± 8 | 160 ± 10 | – | 32 ± 4 | 27 ± 3 | 5.25 | 2.04 | 6.31 | 4.9 | 12.6
